Results taken from the METLIN SMRT retention time set (Domingo-Almenara et al. 2019).

Test: gradient 5% acetonitrile 3 min, to 50% in 2 min, to 85% in 15 min, held 3 min, 100 µL/min
Conditions: column: Zorbax Extend-C18 2.1 x 50 mm; eluents: water / acetonitrile, 0.1% formic acid
Method in brief: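 Retention times come from adduct peaks that were picked computationally and then checked by hand. The standards, pure and pooled in mixtures of ~100 molecules, were run on a Zorbax Extend-C18 column (2.1 × 50 mm, 1.8 μm) at 100 μL/min with water and acetonitrile, each with 0.1% formic acid. Detection was by quadrupole time-of-flight mass spectrometry in positive and negative ionization mode, with a dead volume of 40 μL and a dwell volume of 900 μL.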

| Structure (SMILES) | RP-LC retention time [s] |
| --- | --- |
| COc1ccc(-c2ccnc3nc(Cc4ccc(F)cc4)nn23)cc1 | 920 |
| CCn1cc(C)c(C(=O)O)c1CC(=O)NCCN1CCCc2ccccc21 | 711 |
| Cn1ncc2c(Sc3ccc(Cl)cc3)ncnc21 | 1000 |
| CC(C)OCCCNC(=O)C1Cn2cccc2C(=O)N1C (centres undefined) | 621 |
| O=C(COc1ccc(Cl)cc1)Nc1ccc(-c2nnc3n2CCCC3)cc1 | 757 |
| COc1ccccc1NC(=O)CN1C(=O)NC2(CCCCC2)C1=O | 760 |
| Cc1ccc(CN2CCN(C3CCN(S(=O)(=O)c4ccccc4Cl)CC3)C(=O)C2=O)cc1 | 847 |
| COc1ccc(CCNC(=O)c2nnc(-c3ccc(S(=O)(=O)N4CCCC4)cc3)o2)cc1OC | 824 |
| CN(CCc1noc(-c2ccccc2)n1)C(=O)Nc1ccc(F)cc1F | 858 |
| Cc1nc(-c2cccc(C(=O)NC(C)C)c2)no1 | 596 |
| Cc1ccc(CNC(=O)C2(c3ccc(NC(=O)C(C)C)cc3)CCC2)cc1C | 936 |
| CCn1c(=O)n(CC)c2cc(N3CCCC3)c(NC(=O)NCc3ccc(F)cc3)cc21 | 648 |
| COc1ccc(C(C)NC(=O)C2c3ccccc3CCN2C(=O)C2CC2)cc1OC (centres undefined) | 802 |
| Cn1nc(C(=O)N2CCCC(c3nnc(C(F)(F)F)o3)C2)ccc1=O (centres undefined) | 638 |
| Cc1ccccc1NC(=O)Cn1nc(C(=O)N2CCOCC2)c2ccccc21 | 735 |
| Cc1ccsc1C(=O)Nc1cnc(N2CCCCC2)nc1 | 915 |
| COc1cccc(NC(=O)Nc2ccc(-c3cn4ccc(C)nc4n3)cc2)c1 | 639 |
| COc1cccc(C(=O)CC2(O)C(=O)Nc3ccc(C)cc32)c1 (centres undefined) | 720 |
| O=C(Cc1cccs1)N1CCCCC1c1nc(-c2cnccn2)no1 (centres undefined) | 726 |
| CCOc1ccccc1C1NC(=O)N(CC(=O)N2CCN(c3ccc(F)cc3)CC2)C2=C1C(=O)OC2 (centres undefined) | 830 |
| COc1cccc(C(=O)NCc2nnnn2C2CCCCC2)c1OC | 784 |
| COc1ccccc1-c1nnc(C2CCN(S(=O)(=O)c3c(C)cc(C)cc3C)CC2)o1 | 1030 |
| COc1cccc(S(=O)(=O)N2CCC(n3c(C)cnc3C3CC3)C2)c1 (centres undefined) | 587 |

| Structure (SMILES) | RP-LC retention time [s] |
| --- | --- |
| COc1ccc(NC(=O)c2csc(-c3cn(C)c4ncccc34)n2)cc1 | 923 |
| Cc1cc(C)n(Cc2ccc(C(=O)N3CCN(c4cc(=O)n(C)c(=O)n4C)CC3)o2)n1 | 629 |
| CCOc1ccccc1NC(=O)N1CCC([C@@H]2[C@H](OC)C(=O)N2C(C)C)CC1 | 846 |
| Cc1cc(N2CCN(C)CC2)n2nc(CN3CCN(c4cccc(Cl)c4)CC3)nc2n1 | 568 |
| Cc1nc2cc(N3CC(C(=O)N4CCN(c5ccccc5F)CC4)CC3=O)ccc2o1 (centres undefined) | 788 |
| O=C(Cn1c(=O)c2cccn2c2ccccc21)Nc1ccccc1F | 824 |
| COCCN1CC2(CCN(S(=O)(=O)c3cccc(Cl)c3)CC2)C1c1ccncc1 (centres undefined) | 631 |
| Cc1ccc(F)cc1NC(=O)CN1CCC(c2nc(-c3cccs3)no2)CC1 | 725 |
| O=C(NCCCN1CCCC1=O)c1cccc(N2CCNC(c3ccccc3)C2)n1 (centres undefined) | 590 |
| CC(C)CC(=O)Nc1ccc(S(=O)(=O)N2CCCC2c2nc(-c3ccc(F)cc3)no2)cc1 (centres undefined) | 1080 |
| CSc1ccc(-c2nc3ccccn3c2Nc2ccc3c(c2)OCO3)cc1 | 711 |
| O=C1CC(NC(=O)NCc2ccc(Cl)cc2)CN1 (centres undefined) | 592 |
| CCOc1ccc(OCC)c(NC(=O)C2CCCN(C(=O)c3cc(-c4ccccn4)n[nH]3)C2)c1 (centres undefined) | 775 |
| CCc1cccc(NC(=O)N2CCC(CC(=O)N3CCCCC3)CC2)c1 | 751 |
| CCN(CC)c1nc(C(=O)Nc2ccccc2OC)nc2nc(C)cc(C)c12 | 732 |
| Cc1nc(C)c(C(=O)Nc2nc(-c3ccc(Cl)cc3)c(C)s2)s1 | 1060 |
| O=C(Nc1nnc(SCc2nnc(-c3ccccc3)o2)s1)c1cccc(Cl)c1 | 977 |
| COCC(=O)N1CCC2(CCC2O)CC1 (centres undefined) | 577 |
| O=C(Cn1nc2c(Oc3cccc(F)c3)nccn2c1=O)Nc1ccc(F)cc1 | 849 |
| COc1ccc(NC(=O)c2cnc3c(c2)c(=O)n(C)c(=O)n3C)cc1 | 732 |
| O=C(CN1C(=O)NC2(CCCCC2)C1=O)NCc1ccc2c(c1)OCO2 | 699 |
| C=CCn1c(=O)c2ccccc2n(Cc2nc(-c3ccc(F)c(Br)c3)no2)c1=O | 1170 |
| Cc1ccc(C)c(NC(=O)Cn2cccc2-c2nc(-c3ccc4c(c3)OCO4)no2)c1 | 1050 |

| Structure (SMILES) | RP-LC retention time [s] |
| --- | --- |
| NC(=O)C1CCN(C(=O)c2cn(-c3ccc(Cl)cc3)nn2)CC1 | 660 |
| CC1CCN(CCCNc2ccc(-c3nc(-c4ccc(F)cc4)no3)cn2)CC1 | 740 |
| O=S(=O)(c1ccc(-c2nnc(C3CCCC3)o2)o1)N1CCCCCC1 | 1060 |
| CC1CCN(S(=O)(=O)c2ccc(-c3nnc(C(=O)N4CCCCCC4)o3)cc2)CC1 | 1100 |
| COc1ccc(NC(=O)C2CCN(S(=O)(=O)c3ccc4[nH]c(=O)sc4c3)CC2)cc1Cl | 821 |
| Cc1cc(-c2ccc(S(=O)(=O)N3CCC(C(=O)NCc4cccs4)CC3)o2)n[nH]1 | 735 |
| CNC(=O)N1CCC(CCc2nc(C3CCOCC3)no2)CC1 | 648 |
| CC(C)c1nc2c(NC(=O)c3ccccc3)cccn2n1 | 860 |
| CC(C)CC(=O)Nc1ccc2c(c1)N(C(=O)c1ccco1)CCC2 | 802 |
| Cc1noc(C)c1-c1ccc(S(=O)(=O)Nc2ccc(C(C)C)cc2)cc1 | 1060 |
| Cc1ccc(CNC(=O)CCc2conc2-c2ccccc2)cc1 | 896 |
| O=S(=O)(NCCc1c[nH]c2ncccc12)c1ccccc1Br | 630 |
| CC(C)N1C(=O)c2cccnc2Sc2cc(NC(=O)COc3ccc(F)cc3)ccc21 | 894 |
| COC(=O)c1cnn(-c2ccc(C(=O)NC3CCCC3)cc2)c1N | 716 |
| CCOc1ccc(N2CC(c3nnc(NC(=O)c4ccc(Br)cc4)o3)CC2=O)cc1 (centres undefined) | 805 |
| CCCNC(=O)c1cnn(-c2ccc(SCC)nn2)c1C | 777 |
| Cc1ccc(-n2nc(C)c(S(=O)(=O)N3CCC(C(=O)NCc4cccs4)CC3)c2C)cc1 | 919 |
| COc1cccc(CNc2nc3ccncc3n(C(C)C)c2=O)c1OC | 644 |
| O=C(Nc1cccnc1)C1CCCN(S(=O)(=O)c2cc(-c3noc(C4CCC4)n3)cs2)C1 (centres undefined) | 893 |
| CCOC(=O)c1cc(S(=O)(=O)N2CCCC2C(=O)N(CC)c2cccc(C)c2)cn1C (centres undefined) | 943 |
| O=C(NCC1CCCO1)c1nnn(-c2ccccc2Cl)c1-c1ccncc1 (centres undefined) | 693 |
| O=S(=O)(c1cc(F)ccc1F)N1CCc2nc(-c3ccccc3)ncc2C1 | 1070 |
| Cc1ccc(-c2ncc(C(=O)NCC3CCCCC3)c(-c3ccncc3)n2)cc1 | 992 |

| Structure (SMILES) | RP-LC retention time [s] |
| --- | --- |
| O=c1cc[nH]c2c(C(F)(F)F)cccc12 | 609 |
| Cc1cc(C(=O)NCC2CCN(C(=O)Nc3ccc(F)cc3)CC2)c(C)o1 | 750 |
| COC(=O)Cn1c(C)cc(=O)n2nc(-c3ccccc3C)nc12 | 761 |
| COc1ccc(C(C)NC(=O)c2nc(N(C)C)c3c(C)cc(C)nc3n2)cc1 (centres undefined) | 658 |
| O=C(NCC(c1ccsc1)N1CCc2ccccc2C1)C(=O)NC1CCCC1 (centres undefined) | 592 |
| Cc1ccc(NC(=O)c2c(O)c3cccnc3n(-c3ccc(F)cc3)c2=O)cc1F | 1340 |
| Cc1ccccc1N1CCn2c1nc1c2c(=O)n(CC(=O)O)c(=O)n1C | 664 |
| COc1ccc(-c2cc3c(=O)n(CC(=O)N4CCN(c5ccccn5)CC4)ncn3n2)cc1 | 641 |
| O=C(Nc1ccccc1Cl)N1CCCC1c1nc(-c2ccc(F)cc2F)no1 (centres undefined) | 1040 |
| O=C1NCCCn2nc(C3CCN(C(=O)Nc4cccc(C(F)(F)F)c4)CC3)cc21 | 721 |
| O=S1(=O)C[C@H](N2CCN(c3ccccc3F)CC2)[C@@H](S(=O)(=O)c2ccc(Cl)cc2)C1 | 986 |
| COc1cccc(NC(=O)Cn2nc(C(=O)N3CCCC3)c3ccccc32)c1 | 792 |
| O=C(NCC1CCCO1)c1csc(N2CCN(c3cccc(Cl)c3)CC2)n1 (centres undefined) | 703 |
| COc1ccc(-c2c(C(=O)NCCCN3CCOCC3)nc3ccccn23)cc1 | 594 |
| CCc1ccc(-c2cc(C(F)(F)F)on2)cc1S(=O)(=O)N1CCN(c2ccccn2)CC1 | 933 |
| CCNc1nc(C)cc(N2CCN(S(=O)(=O)c3cccc(C(F)(F)F)c3)CC2)n1 | 754 |
| CCOc1cc(C(=O)Nc2nc(-c3ccc4c(c3)NC(=O)CO4)c(C)s2)cc(OCC)c1OCC | 1140 |
| O=C(CN1C(=O)c2ccccc2C1=O)Nc1ccc2c(c1)N(C(=O)c1ccco1)CCC2 | 738 |
| O=c1ccn(-c2cccc(F)c2)nc1-c1nc(-c2ccc(F)cc2)no1 | 902 |
| Cc1ccc(CN2CCN(C3CCN(C(=O)Nc4ccccc4)CC3)C2=O)cc1 | 844 |
